Literature values, collected in patent US10272130B1, “Oral anaerobic glutathione supplement in liposome suspension” (priority 2017, dated 2019).

How the values were obtained:
[1] = in vivo

half-life [1]: approximately 5.6 hours
renally excreted by the body [1]: 30%
pregnancy risk category (in vivo): category B
Compound: CC(=O)N[C@@H](CS)C(=O)O [NAC, N-acetylcysteine]
adverse effects associated with administration (orally administered or inhaled): drowsiness, stomatitis, clamminess, rhinorrhea, and hemoptysis
